Source: patent US5795876A, “Method of inhibiting vascular cell adhesion molecule-1 and treating chronic inflammatory diseases with 2, 6-di-alkyl-4-silyl-phenols” (Hoechst Marion Rousssel, Inc., priority 1997, dated 1998)
Where two headings read alike, the source gives them in different places.

Assays:
[1] = system: VCAM-1; assay: Cell surface ELISA for VCAM-1 in human aortic smooth muscle cells (HASMC), cytokine-induced (interleukin-4); format: cell-based; details: for inhibition at 50 µM: HASMC; for IC50: HSMC, eight serial dilutions, basal expression subtracted
Protocol: (§1) Cell Surface ELISA for VCAM-1/ICAM-1
(§2) Proliferating human umbilical vein endothelial cells (HUVEC) or human aortic smooth muscle cells (HASMC) from Clonetics (San Diego, Calif.) were plated onto 96-well plates in 100 μL medium per well at 20,000 cells per cm^2. The cultures were maintained in growth medium (EGM or SMGM2, Clonetics, San Diego, Calif.) for two days prior to addition of cytokines or drugs. Cytokines plus or minus compounds were added for 20 to 24 hours prior to analysis for adhesion molecule levels. Tumor necrosis factor (Genzyme, Cambridge, Mass.) was added to cultures at 500-1000 units/mL. Interleukin-4 (GIBCO-BRL, Gaithersburg, Md.) was added to cultures at 100-200 pg/mL. (Additions were made by transferring 100 μL of cytokines plus compounds serially diluted on a separate 96-well plate into the plates containing cells. The medium on the cultures was not exchanged prior to addition of effectors). The culture medium was removed, and the monolayers were washed twice with Hanks buffered saline solution (HBSS) at room temperature. The primary antibody (anti-human VCAM-1 from Upstate Biotechnology, Inc., Lake Placid, N.Y. or anti-human ICAM-1 from Immunotech, Inc., Westbrook, Me.) was added to each well (1 μg/mL in HBSS plus 5% newborn calf serum, GIBCO-BRL, Gaithersburg, Md.) and incubated at 37° C. for 1 hr. The wells were washed twice with HBSS, then 100 μL of a 1/1000 dilution of goat anti-mouse IgG conjugated to horse radish peroxidase (BioRad, Hercules, Calif.) in HBSS plus 5% newborn calf serum was added to each well and incubated for 1 hr at 37° C. The wells were washed three times with HBSS, then 100 μL of TMB substrate (BioRad, Hercules, Calif.) was added to each well. The reaction was stopped after blue color developed by addition of 50 μL of 1N H2 SO4. Absorbance is measured at 450 nm with a plate reader. IC50 values were determined from curves of absorbance values obtained from serial dilutions of compounds (dissolved in dimethyl sulfoxide).
(§3) The IC50 value is defined as the drug concentration that inhibits the cytokine-induced adhesion molecule expression by 50%. Maximal values for adhesion molecule expression in cytokine-induced cultures was subtracted from the basal level of adhesion molecule expression (minus cytokines) in the cultures to determine the level of induction. […] Each drug concentration was tested in quadruplicate wells. Single point tests of compounds at 50 μM were assayed as described for IC50 determinations, except that the data represent the level of inhibition without correction for basal expression. (Basal adhesion molecule expression was 10-20% of the total induced expression).
Table 1 summarizes the ability of various compounds of this invention to inhibit VCAM-1 using human aortic smooth muscle cells (HASMC). In these experiments, the cells were coincubated with interleukin-4 and the compounds listed about 20 hr before assaying cell surface VCAM-1 levels. Each column represents a separate experiment.
(§4) Table 3 illustrates the activity of selected compounds when eight serial dilutions of drug were tested against cytokine induction of VCAM-1 expression in both vascular endothelial and smooth muscle cells. Subtraction of basal VCAM-1 expression was also used in the calculation of IC50 values. Each compound was also tested in a similar manner for ICAM-1 inhibition. No inhibition of ICAM-1 was detected (up to 100 μM) in vascular smooth muscle cells.

[2] = system: VCAM-1; assay: Cell surface ELISA for VCAM-1 in human umbilical vein endothelial cells (HUVEC), cytokine-induced (tumor necrosis factor-alpha); format: cell-based; details: for inhibition at 50 µM: read-out: VCAM-1 (% inh. 50 μM); for IC50: eight serial dilutions, basal expression subtracted
Protocol: as §1, §2, §3
(§5) In these experiments, the cells were coincubated with tumor necrosis factor-alpha along with the indicated compounds about 20 to 24 hr before assaying cell surface adhesion molecule expression.
as §4

[3] = system: ICAM-1; assay: Cell surface ELISA for ICAM-1 in human umbilical vein endothelial cells (HUVEC), cytokine-induced (tumor necrosis factor-alpha); format: cell-based; details: for inhibition at 50 µM: Homo sapiens, HUVEC, read-out: ICAM-1 (% inh. 50 μM)
Protocol: as §1, §2, §3, §5, §4

[4] = system: VCAM-1; assay: In vivo inhibition of LPS-induced VCAM-1 upregulation in rabbit aorta (immunohistochemistry); set-up: species or system New Zealand white rabbits; details: 0.4% in diet for three weeks; LPS 40 μg/animal i.v.; aorta 4 hr after LPS; when adequately accumulated
From the text: FIG. 1 illustrates the effect of 2,6-di-t-butyl-4-[(dimethylphenylsilyl)methylthio]phenol (MDL 29,353) on LPS induced VCAM-1 expression in rabbit aorta in vivo. Data are expressed as the percent of the aortic surface endothelium expressing VCAM-1 as measured by immunostaining with an anti-rabbit VCAM-1 antibody.
In Vivo Inhibition of VCAM-1 Upregulation by MDL 29,353 in Rabbit Aorta
New Zealand white rabbits were fed a diet of chow plus or minus 0.4% MDL 29,353 for three weeks prior to challenge with lipopolysaccharide (LPS, 40 μg/animal, i.v. ear vein). The aorta was removed from each animal 4 hr after LPS injection and rinsed briefly in phosphate buffered saline. VCAM-1 was immunohistochemistry was performed by incubating the tissues with RB1/9 antibody (mouse anti-rabbit VCAM-1) at 4° C. overnight. The bound RB1/9 was detected using a biotinylated goat anti-mouse secondary antibody (60 min, RT). VCAM-1 staining was accomplished by addition of streptavidin-alkaline phosphatase conjugate (30 min, RT) followed by an incubation with BT Red (Biotec, 10, RT). Images of the stained tissues were captured using an image analysis system for determination of the percentages of the aortic endothelium showing immunoreactivity with anti-VCAM antibody.

[5] = system: human umbilical vein endothelial cells (HUVEC); assay: Loss of HUVEC adherence to the tissue culture surface (microscope); format: cell-based; details: vascular endothelial cells; 50 and 100 μM; observed with a microscope
[6] = system: VCAM-1; details: vascular endothelial cells; cited from earlier work
[7] = system: ICAM-1; details: vascular endothelial cells; cited from earlier work
[8] = 20 h, read-out: HSMC-1 (% inh. 50 μM) VCAM-1
[9] = 20 h, read-out: HSMC-2 (% inh. 50 μM) VCAM-1
[10] = 20 h, read-out: HSMC-3 (% inh. 50 μM) VCAM-1
[11] = HSMC-1 experiment, 50 μM, interleukin-4, about 20 hr, no correction for basal expression, read-out: HSMC-1 (% inh. 50 μM) VCAM-1
[12] = HSMC-2 experiment, 50 μM, interleukin-4, about 20 hr, no correction for basal expression, read-out: HSMC-2 (% inh. 50 μM) VCAM-1
[13] = HSMC-3 experiment, 50 μM, interleukin-4, about 20 hr, no correction for basal expression, read-out: HSMC-3 (% inh. 50 μM) VCAM-1
[14] = average of HSMC-1, HSMC-2, HSMC-3, 50 μM, read-out: VCAM-1 (Avg.) % inh.
[15] = 50 μM, TNF-alpha, 20 to 24 hr, average of three runs
[16] = 50 μM, TNF-alpha, 20 to 24 hr, average of two runs

Compound	inhibition at 50 µM [1, 8] [%]	inhibition at 50 µM [1, 9] [%]	inhibition at 50 µM [1, 10] [%]	inhibition at 50 µM ([1]; read-out: VCAM-1 (Avg.) % inh.) [%]	inhibition at 50 µM [2] [%]	inhibition at 50 µM [1, 11] [%]	inhibition at 50 µM [1, 12] [%]	inhibition at 50 µM [1, 13] [%]	inhibition at 50 µM [1, 14] [%]	IC50 [1] [µM]	inhibition at 50 µM [2, 15] [%]	IC50 [2] [µM]	inhibition at 50 µM [3] [%]	further results
CC(C)(C)c1cc(SC[Si](C)(C)C)cc(C(C)(C)C)c1O [MDL 28,235, 2,6-Di-t-butyl-4-[(trimethylsilyl)methylthio]phenol]	7.8	18	42	22.6	4.3									
CC(C)(C)c1cc(SC[Si](C)(C)c2ccccc2)cc(C(C)(C)C)c1O [MDL 29,353, 2,6-Di-t-butyl-4-[(dimethylphenylsilyl)methylthio]phenol]						58	60	46	54.7	10	8.7	19		inhibition at 50 µM [3, 16]: 6%; Inhibition of LPS induced VCAM-1 expression in rabbit aortic endothelium (FIG. 1) [4]: can inhibit the LPS induced level of VCAM-1 expression in rabbit aortic endothelium
Cc1cc(OC[Si](C)(C)c2ccccc2)cc(C)c1O [MDL 103,719, 2,6-Dimethyl-4-[(dimethylphenylsilyl)methyloxy]phenol]		49	42	45.5	17								77	
CC(C)(C)c1cc(OC[Si](C)(C)c2ccccc2)cc(C(C)(C)C)c1O [MDL 103,902, 2,6-Di-t-butyl-4-[(dimethylphenylsilyl)methyloxy]phenol]						49	60	43	50.7	5	25.3	11		Inhibition of ICAM-1 expression in vascular endothelial cells ([3]; 50 and 100 μM, could be accounted for by loss of cell adherence): significant inhibition of ICAM-1 expression; inhibition at 50 µM [3, 16]: 39%; Cell adherence to the tissue culture surface [5]: loss of cell adherence
CC(C)(C)c1cc(OC[Si](C)(C)c2ccc(Cl)cc2)cc(C(C)(C)C)c1O [MDL 104,280, 2,6-Di-t-butyl-4-[(4-chlorophenyldimethylsilyl)methyloxy]phenol]	54.7	63	44	53.9	27.3								22	
Cc1cc(SC[Si](C)(C)c2ccccc2)cc(C(C)(C)C)c1O [MDL 104,518, 2-t-butyl-6-methyl-4-[(dimethylphenylsilyl)methylthio]phenol]	4.4	47	26	25.8									78	
COc1ccc([Si](C)(C)COc2cc(C(C)(C)C)c(O)c(C(C)(C)C)c2)cc1 [MDL 105,074, 2,6-Di-t-butyl-4-[(dimethyl-4-methoxyphenylsilyl)methyloxy]phenol]						28.3	52	47	42.4	40	20	12		
CC(=O)N[C@@H](CS)C(=O)O [N-acetylcysteine]														Inhibition of cytokine-induced expression of VCAM-1 [6]: inhibit cytokine-induced expression of VCAM-1; Inhibition of cytokine-induced expression of ICAM-1 [7]: not ICAM-1
S=C(S)N1CCCC1 [pyrollidine dithiocarbamate]														Inhibition of cytokine-induced expression of VCAM-1 [6]: inhibit cytokine-induced expression of VCAM-1; Inhibition of cytokine-induced expression of ICAM-1 [7]: not ICAM-1
